For 13 compounds, IC50 results are on record in patent publication US12371428B2 (Exelixis, Inc., priority 2019, dated 2025).

Assay [1] concerns the target KDR (phospho-KDR, VEGF165-stimulated HUVEC cells) (Homo sapiens (Human), UniProt P35968). As to the kind of experiment: KDR autophosphorylation ELISA in HUVEC cells (Example G). Type of assay: cell-based. To be noted: cellular activity; KDR autophosphorylation ELISA in HUVEC cells. The method in brief: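 First, endothelial cells were cultured a day, then kept without serum for another day. Next came 1 h with serially diluted compound, a brief 5 min VEGF165 stimulus (100 ng/mL), rapid lysis, and ELISA detection of receptor phosphorylation relative to stimulated and non-stimulated controls.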

Assay [2] concerns the target Mer (phospho-Mer, MERTK-transfected 293A cells) (Homo sapiens (Human), UniProt Q12866). As to the kind of experiment: Mer autophosphorylation ELISA in transient transfected 293A cells (Example H). The assay is classed as cell-based. To be noted: cellular activity; Mer autophosphorylation ELISA in transient transfected 293A cells. The method in brief:
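MERTK-transfected 293A; 8-pt dose, 1 h, serum-free, 0.3% DMSO. Cold lysis with orthovanadate and protease/phosphatase inhibitors. Phospho-Mer by DuoSet IC ELISA vs phospho-Mer standard. IC50: 4-PL fit; DMSO = 100%, reference inhibitor = 0%.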

Assay [3] addresses Met (phospho-Met, HGF-stimulated PC-3 prostate cancer cells) (Homo sapiens (Human), UniProt P08581). As to the kind of experiment: Met autophosphorylation ELISA in PC-3 cells (Example F). Type of assay: cell-based. The conditions noted are these: cellular activity; Met autophosphorylation ELISA in PC-3 cells; read-out: c-Met IC50. The method in brief:
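Compounds were tested on HGF-stimulated PC-3 cells. After 24 h culture and 3 h serum starvation, cells got compound for 1 h and 100 ng/mL HGF for 10 min, and Met tyrosine phosphorylation was measured by ELISA.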

Assay [4] concerns the target Human MER (residues 528-999) (Homo sapiens (Human), UniProt Q12866). As to the kind of experiment: Human Mer kinase assay, HTRF KinEase (Example C-2). Type of assay: biochemical. As for the experimental part:
(§1) Kinase activity and compound inhibition were also investigated using the HTRF® KinEase assay (Cisbio Cat #62TKOPEB) per manufacturer's instructions. In short, compounds were delivered in 300 nL volumes at 10 different concentrations in DMSO (3% final) to empty 384-well assay plates (Corning cat #3824). A mixture of enzyme, […] biotynlated peptide substrate, and buffer in 10 μL volume was added. The assay was started upon the addition of ATP (at Km). The 10 μL reaction was incubated at room temperature. The reaction was stopped upon the addition of detection buffer containing streptavidin-XL665 ([…]) and TK antibody-Eu3+([…]). After a 60 min incubation at room temperature, the fluorescence at 665 nm and 620 nm was read on an Envision microplate reader (Perkin Elmer).
(§2) Kinase activity normalized to DMSO (100% activity) and reference compound at […] and (0% activity) was calculated using the fluorescence ratio […]. IC50 values were calculated by nonlinear regression analysis using a 4-parameter logistic curve fit in ActivityBase XE (IDBS).
Example C-2: Human MER (residues 528-999; CarnaBio, 1 ng/well) was also incubated with enzymatic buffer (Cisbio) supplemented with 5 mM MgCl2 and 1 mM DTT. The mixture was added to the pre-plated compounds. The reaction was initiated upon addition of ATP at Km (40 μM). The reaction was incubated at room temperature for 60 min and stopped upon the addition of SA-XL665 and TK-antibody both diluted in EDTA-containing kinase detection buffer (Cisbio). The kinase activity was calculated as stated above and the IC50 values were reported.

Assay [5] concerns the target Human MET (residues 956-1390) (Homo sapiens (Human), UniProt P08581). As to the kind of experiment: Human Met kinase assay, HTRF KinEase (Example D-2). The assay is classed as biochemical. To be noted: read-out: c-Met IC50. The procedure: as §1, §2
Example D-2: Human MET (residues 956-1390; CarnaBio, 0.1 ng/well) was also incubated with enzymatic buffer (Cisbio) supplemented with 5 mM MgCl2, 1 mM DTT and 1 mM MnCl2. The mixture was added to the pre-plated compounds. […] The reaction was incubated at room temperature for 40 min and stopped upon the addition of SA-XL665 and TK-antibody both diluted in EDTA-containing kinase detection buffer (Cisbio). The kinase activity was calculated as stated above and the IC50 values were reported.

For assay [6], the target named is Human KDR (residues 790-1356) (Homo sapiens (Human), UniProt P35968). The assay is described as follows: Human KDR kinase assay, HTRF KinEase (Example B-2). Type of assay: biochemical. The conditions noted are these: protocol of Example B-2 (other compounds). As for the experimental part: as §1, §2
Example B-2: Human KDR (residues 790-1356; CarnaBio, 0.1 ng/well) was also incubated with enzymatic buffer (Cisbio) supplemented with 5 mM MgCl2, 1 mM MnCl2, and 1 mM DTT. The mixture was added to the pre-plated compounds. The reaction was initiated upon addition of ATP at Km (4.0 μM). The reaction was incubated at room temperature for 40 min and stopped upon the addition of SA-XL665 and TK-antibody both diluted in EDTA-containing kinase detection buffer (Cisbio). The kinase activity was calculated as stated above and the IC50 values were reported.

[7] abbreviates: protocol of Example C-2 (other compounds).
[8] abbreviates: protocol of Example D-2 (other compounds).

Structures are written as SMILES. Counter-ions that a name gives are not always drawn. Like-named read-outs stand apart in the source and are kept apart here. A value given as a limit tells only on which side of the number the result lay.

Sequence of KDR (phospho-KDR, VEGF165-stimulated HUVEC cells) (P35968 20-1356): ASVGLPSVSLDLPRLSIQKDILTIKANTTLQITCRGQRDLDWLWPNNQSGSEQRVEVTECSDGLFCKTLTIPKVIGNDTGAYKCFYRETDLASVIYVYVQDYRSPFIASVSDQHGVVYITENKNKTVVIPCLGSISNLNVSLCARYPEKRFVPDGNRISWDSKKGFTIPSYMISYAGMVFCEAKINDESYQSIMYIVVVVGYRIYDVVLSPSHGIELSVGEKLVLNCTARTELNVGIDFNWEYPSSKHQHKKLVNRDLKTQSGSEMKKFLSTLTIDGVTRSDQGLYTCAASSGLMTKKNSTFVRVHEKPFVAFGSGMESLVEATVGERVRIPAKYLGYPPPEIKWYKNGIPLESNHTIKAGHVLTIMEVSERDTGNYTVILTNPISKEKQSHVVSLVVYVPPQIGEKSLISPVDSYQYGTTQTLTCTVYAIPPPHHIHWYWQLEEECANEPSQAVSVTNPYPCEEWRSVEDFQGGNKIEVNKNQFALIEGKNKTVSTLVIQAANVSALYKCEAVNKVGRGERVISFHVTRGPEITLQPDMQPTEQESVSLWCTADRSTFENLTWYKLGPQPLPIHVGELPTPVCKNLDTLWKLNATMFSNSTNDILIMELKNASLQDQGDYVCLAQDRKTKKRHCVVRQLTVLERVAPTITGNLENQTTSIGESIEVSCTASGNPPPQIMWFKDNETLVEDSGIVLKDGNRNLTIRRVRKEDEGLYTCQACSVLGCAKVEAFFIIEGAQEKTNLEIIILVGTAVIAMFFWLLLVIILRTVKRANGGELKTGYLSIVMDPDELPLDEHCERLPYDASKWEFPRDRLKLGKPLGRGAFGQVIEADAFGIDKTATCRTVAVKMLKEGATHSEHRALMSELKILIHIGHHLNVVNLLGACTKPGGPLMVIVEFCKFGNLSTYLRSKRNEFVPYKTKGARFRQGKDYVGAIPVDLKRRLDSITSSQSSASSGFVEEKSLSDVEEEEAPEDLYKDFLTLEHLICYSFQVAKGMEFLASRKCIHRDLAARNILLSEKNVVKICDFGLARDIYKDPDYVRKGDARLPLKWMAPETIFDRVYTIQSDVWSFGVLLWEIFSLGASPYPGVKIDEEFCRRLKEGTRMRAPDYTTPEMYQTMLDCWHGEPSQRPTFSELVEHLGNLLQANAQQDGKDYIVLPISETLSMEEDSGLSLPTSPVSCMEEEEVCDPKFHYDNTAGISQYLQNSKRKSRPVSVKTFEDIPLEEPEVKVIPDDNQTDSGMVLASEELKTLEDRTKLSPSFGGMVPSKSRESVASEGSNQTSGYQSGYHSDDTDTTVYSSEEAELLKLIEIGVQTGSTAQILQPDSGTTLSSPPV
Sequence of Met (phospho-Met, HGF-stimulated PC-3 prostate cancer cells) (P08581 25-1390): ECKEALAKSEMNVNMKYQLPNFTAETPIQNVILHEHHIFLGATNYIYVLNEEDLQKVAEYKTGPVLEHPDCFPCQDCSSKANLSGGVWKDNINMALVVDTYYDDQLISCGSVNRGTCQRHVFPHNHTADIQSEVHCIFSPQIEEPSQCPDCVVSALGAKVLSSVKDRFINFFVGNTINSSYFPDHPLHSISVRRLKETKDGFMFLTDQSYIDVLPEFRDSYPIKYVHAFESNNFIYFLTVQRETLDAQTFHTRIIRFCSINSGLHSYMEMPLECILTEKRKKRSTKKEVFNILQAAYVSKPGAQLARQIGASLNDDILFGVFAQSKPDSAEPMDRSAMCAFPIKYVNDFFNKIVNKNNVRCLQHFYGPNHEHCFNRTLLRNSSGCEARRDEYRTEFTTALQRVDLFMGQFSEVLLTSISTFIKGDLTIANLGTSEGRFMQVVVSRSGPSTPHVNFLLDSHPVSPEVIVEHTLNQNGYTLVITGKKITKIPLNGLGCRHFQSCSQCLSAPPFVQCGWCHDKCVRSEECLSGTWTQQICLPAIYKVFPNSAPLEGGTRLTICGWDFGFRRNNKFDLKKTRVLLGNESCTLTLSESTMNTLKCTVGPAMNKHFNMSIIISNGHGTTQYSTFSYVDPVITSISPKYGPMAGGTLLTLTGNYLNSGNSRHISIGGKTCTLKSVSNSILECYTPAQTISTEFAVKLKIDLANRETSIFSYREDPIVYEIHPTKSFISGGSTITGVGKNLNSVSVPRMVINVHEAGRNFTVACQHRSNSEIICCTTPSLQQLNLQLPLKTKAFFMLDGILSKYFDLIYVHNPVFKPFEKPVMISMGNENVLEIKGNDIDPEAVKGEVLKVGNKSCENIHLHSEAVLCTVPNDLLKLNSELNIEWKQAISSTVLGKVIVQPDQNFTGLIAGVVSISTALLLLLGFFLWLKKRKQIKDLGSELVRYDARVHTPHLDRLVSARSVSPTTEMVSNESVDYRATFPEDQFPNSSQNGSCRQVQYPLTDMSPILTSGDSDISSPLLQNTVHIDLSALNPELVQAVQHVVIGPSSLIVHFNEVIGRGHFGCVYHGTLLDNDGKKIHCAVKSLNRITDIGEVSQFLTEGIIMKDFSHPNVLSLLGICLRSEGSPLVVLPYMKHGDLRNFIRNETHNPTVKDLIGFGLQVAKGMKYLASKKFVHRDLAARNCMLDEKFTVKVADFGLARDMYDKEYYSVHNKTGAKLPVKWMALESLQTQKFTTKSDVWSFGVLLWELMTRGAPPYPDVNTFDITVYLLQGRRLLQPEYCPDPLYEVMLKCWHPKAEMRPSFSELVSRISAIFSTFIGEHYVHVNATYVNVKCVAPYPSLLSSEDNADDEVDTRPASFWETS
Sequence of Human MET (residues 956-1390) (P08581 956-1390): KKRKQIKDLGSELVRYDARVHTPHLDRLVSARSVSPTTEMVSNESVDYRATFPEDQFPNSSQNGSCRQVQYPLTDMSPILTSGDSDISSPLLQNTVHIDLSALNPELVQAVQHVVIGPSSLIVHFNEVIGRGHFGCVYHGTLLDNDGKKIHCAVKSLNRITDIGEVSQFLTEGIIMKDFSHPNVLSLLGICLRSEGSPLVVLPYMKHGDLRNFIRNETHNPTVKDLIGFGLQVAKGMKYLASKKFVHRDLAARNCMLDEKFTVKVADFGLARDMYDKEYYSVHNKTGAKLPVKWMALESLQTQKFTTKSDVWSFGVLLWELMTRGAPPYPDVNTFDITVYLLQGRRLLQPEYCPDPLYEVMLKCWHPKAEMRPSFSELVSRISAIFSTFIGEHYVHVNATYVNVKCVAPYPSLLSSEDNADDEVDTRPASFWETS
Sequence of Mer (phospho-Mer, MERTK-transfected 293A cells) (Q12866 21-999): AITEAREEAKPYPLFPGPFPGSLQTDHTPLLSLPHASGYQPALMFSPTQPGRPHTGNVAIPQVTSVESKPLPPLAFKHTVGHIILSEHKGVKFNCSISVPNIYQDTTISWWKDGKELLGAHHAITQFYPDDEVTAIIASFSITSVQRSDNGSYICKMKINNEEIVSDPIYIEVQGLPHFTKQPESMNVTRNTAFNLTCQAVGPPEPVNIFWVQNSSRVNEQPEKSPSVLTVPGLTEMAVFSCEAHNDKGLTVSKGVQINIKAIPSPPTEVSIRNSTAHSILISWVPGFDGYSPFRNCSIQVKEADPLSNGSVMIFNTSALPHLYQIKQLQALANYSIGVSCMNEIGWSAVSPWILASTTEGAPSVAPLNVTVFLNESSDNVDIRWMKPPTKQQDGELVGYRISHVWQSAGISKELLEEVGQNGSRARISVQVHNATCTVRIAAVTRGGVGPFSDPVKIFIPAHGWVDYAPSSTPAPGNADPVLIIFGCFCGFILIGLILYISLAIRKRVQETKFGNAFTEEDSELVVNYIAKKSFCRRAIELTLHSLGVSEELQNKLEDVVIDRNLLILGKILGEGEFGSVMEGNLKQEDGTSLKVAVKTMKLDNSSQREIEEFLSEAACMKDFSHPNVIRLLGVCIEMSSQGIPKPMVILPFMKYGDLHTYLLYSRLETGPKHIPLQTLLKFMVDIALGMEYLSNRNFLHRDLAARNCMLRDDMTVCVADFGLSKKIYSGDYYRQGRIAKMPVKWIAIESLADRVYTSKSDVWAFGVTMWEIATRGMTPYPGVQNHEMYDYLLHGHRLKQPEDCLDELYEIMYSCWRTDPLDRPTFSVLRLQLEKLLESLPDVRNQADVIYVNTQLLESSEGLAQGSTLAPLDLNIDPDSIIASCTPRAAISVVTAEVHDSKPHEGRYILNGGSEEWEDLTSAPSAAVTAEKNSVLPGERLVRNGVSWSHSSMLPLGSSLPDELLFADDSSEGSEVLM
Sequence of Human MER (residues 528-999) (Q12866 528-999): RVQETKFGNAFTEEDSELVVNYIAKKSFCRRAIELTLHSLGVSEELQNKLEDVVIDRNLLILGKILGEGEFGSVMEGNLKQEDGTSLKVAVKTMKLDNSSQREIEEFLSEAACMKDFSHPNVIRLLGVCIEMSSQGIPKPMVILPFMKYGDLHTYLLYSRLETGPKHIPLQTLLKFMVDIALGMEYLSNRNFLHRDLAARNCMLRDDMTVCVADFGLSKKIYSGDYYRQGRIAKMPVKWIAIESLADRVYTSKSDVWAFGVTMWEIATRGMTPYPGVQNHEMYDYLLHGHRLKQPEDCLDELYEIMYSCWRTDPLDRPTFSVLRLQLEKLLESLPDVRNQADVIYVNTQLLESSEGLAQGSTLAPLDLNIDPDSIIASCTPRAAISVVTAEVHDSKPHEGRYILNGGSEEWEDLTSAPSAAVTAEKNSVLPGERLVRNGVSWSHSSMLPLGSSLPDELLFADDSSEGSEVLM

Turning to `COc1ccc2nccc(Oc3ccc(NC(=O)c4cn(C(C)C)c(C)c(-c5ccc(F)cc5)c4=O)cc3F)c2n1` [Compound 110, N-[3-Fluoro-4-[(6-methoxy-1,5-naphthyridin-4-yl)oxy]phenyl]-5-(4-fluorophenyl)-6-methyl-4-oxo-1-propan-2-ylpyridine-3-carboxamide], the IC50 in assay [1] is over 300 nM; in assay [2], under 100 nM; in assay [3], under 100 nM; in assay [4] (setting [7]) it was under 100 nM; in assay [5] (setting [8]) it was under 100 nM.

On to `CNn1cc(C(=O)Nc2ccc(Oc3ccnc4cc(OC)c(OC)nc34)c(F)c2)c(=O)c(-c2ccc(F)cc2)c1` [Compound 135, N-[4-[(6,7-Dimethoxy-1,5-naphthyridin-4-yl)oxy]-3-fluorophenyl]-5-(4-fluorophenyl)-1-(methylamino)-4-oxopyridine-3-carboxamide], for which the IC50 in assay [1], in assay [2], in assay [3], in assay [4] (setting [7]) and in assay [5] (setting [8]) was under 100 nM throughout.

In the case of `COc1cc2nccc(Oc3ccc(NC(=O)c4cn(N(C)C)cc(-c5ccc(F)cc5)c4=O)cc3F)c2nc1OC` [Compound 136, N-[4-[(6,7-Dimethoxy-1,5-naphthyridin-4-yl)oxy]-3-fluorophenyl]-1-(dimethylamino)-5-(4-fluorophenyl)-4-oxopyridine-3-carboxamide], the IC50 in assay [1], in assay [2], in assay [3], in assay [4] (setting [7]) and in assay [5] (setting [8]) was under 100 nM each time.

`COc1cnc2c(Oc3ccc(NC(=O)c4cnc(C)c(-c5ccc(F)cc5)c4O)cc3)ccnc2c1` [Compound 147, 5-(4-Fluorophenyl)-4-hydroxy-N-[4-[(7-methoxy-1,5-naphthyridin-4-yl)oxy]phenyl]-6-methylpyridine-3-carboxamide]: the IC50 in assay [1], in assay [2], in assay [3], in assay [4] (setting [7]) and in assay [5] (setting [8]) was under 100 nM throughout.

As to `COc1cc2nccc(Oc3ccc(NC(=O)c4ccc(CO)n(-c5ccc(F)cc5)c4=O)cc3F)c2nc1OC` [Compound 357, N-[4-[(6,7-dimethoxy-1,5-naphthyridin-4-yl)oxy]-3-fluorophenyl]-1-(4-fluorophenyl)-6-(hydroxymethyl)-2-oxopyridine-3-carboxamide], the IC50 in assay [6], in assay [2], in assay [3] and in assay [4] (setting [7]) was under 100 nM throughout.

Turning to `COc1cc2nccc(Oc3ccc(NC(=O)c4c5n(cc(-c6ccc(F)cc6)c4=O)CCC5)cc3F)c2nc1OC` [Compound 404, N-[4-[(6,7-dimethoxy-1,5-naphthyridin-4-yl)oxy]-3-fluorophenyl]-6-(4-fluorophenyl)-7-oxo-2,3-dihydro-1H-indolizine-8-carboxamide], the IC50 in assay [1], in assay [2], in assay [3], in assay [4] (setting [7]) and in assay [5] (setting [8]) was under 100 nM in each case.

As for `COc1cnc2c(Oc3ccc(NC(=O)c4c5n(cc(-c6ccc(F)cc6)c4=O)CCC5)cc3F)ccnc2c1` [Compound 405, N-[3-fluoro-4-[(7-methoxy-1,5-naphthyridin-4-yl)oxy]phenyl]-6-(4-fluorophenyl)-7-oxo-2,3-dihydro-1H-indolizine-8-carboxamide], the IC50 in assay [1] is over 300 nM; in assay [2], under 100 nM; in assay [3], under 100 nM; in assay [4] (setting [7]) it was under 100 nM; in assay [5] (setting [8]) it was under 100 nM.

On to `COc1nc2c(Oc3ccc(NC(=O)c4cnc(C)c(-c5ccc(F)cc5)c4O)cc3F)ccnc2cc1-c1cccnc1` [Compound 604, N-[3-Fluoro-4-[(6-methoxy-7-pyridin-3-yl-1,5-naphthyridin-4-yl)oxy]phenyl]-5-(4-fluorophenyl)-4-hydroxy-6-methylpyridine-3-carboxamide hydrochloride], for which the IC50 in assay [1], in assay [2], in assay [3] and in assay [5] (protocol of Example D-2) was under 100 nM throughout.

As for `COc1nc2c(Oc3ccc(NC(=O)c4cn(C(C)C)cc(-c5ccc(F)cc5)c4=O)cc3F)ccnc2cc1-c1cccnc1` [Compound 605, N-[3-Fluoro-4-[(6-methoxy-7-pyridin-3-yl-1,5-naphthyridin-4-yl)oxy]phenyl]-5-(4-fluorophenyl)-4-oxo-1-propan-2-ylpyridine-3-carboxamide hydrochloride], the half-maximal inhibitory concentration (IC50) in assay [1] is 100 to 300 nM; in assay [2] it was under 100 nM; in assay [3] it was under 100 nM; in assay [4] (protocol of Example C-2), under 100 nM; in assay [5] (protocol of Example D-2) it was under 100 nM.

With `COc1nc2c(Oc3ccc(NC(=O)c4cn(C(C)C)c(C)c(-c5ccc(F)cc5)c4=O)cc3F)ccnc2cc1-c1cccnc1` [Compound 606, N-[3-Fluoro-4-[(6-methoxy-7-pyridin-3-yl-1,5-naphthyridin-4-yl)oxy]phenyl]-5-(4-fluorophenyl)-6-methyl-4-oxo-1-propan-2-ylpyridine-3-carboxamide hydrochloride], the IC50 in assay [1] was 100 to 300 nM; in assay [2], under 100 nM; in assay [3], under 100 nM; in assay [4] (protocol of Example C-2), under 100 nM; in assay [5] (protocol of Example D-2), under 100 nM.

`COc1nc2c(Oc3ccc(NC(=O)c4cnc(C)c(-c5ccc(F)cc5)c4O)cc3F)ccnc2cc1-c1cnn(C(F)F)c1` [Compound 607, N-[4-[[7-[1-(Difluoromethyl)pyrazol-4-yl]-6-methoxy-1,5-naphthyridin-4-yl]oxy]-3-fluorophenyl]-5-(4-fluorophenyl)-4-hydroxy-6-methylpyridine-3-carboxamide]: the IC50 in assay [1], in assay [2], in assay [3] and in assay [5] (protocol of Example D-2) was under 100 nM each time.

Regarding `COc1nc2c(Oc3ccc(NC(=O)c4cn(C(C)C)cc(-c5ccc(F)cc5)c4=O)cc3F)ccnc2cc1-c1cnn(C(F)F)c1` [Compound 608, N-[4-[[7-[1-(Difluoromethyl)pyrazol-4-yl]-6-methoxy-1,5-naphthyridin-4-yl]oxy]-3-fluorophenyl]-5-(4-fluorophenyl)-4-oxo-1-propan-2-ylpyridine-3-carboxamide], the half-inhibitory concentration (IC50) in assay [1], in assay [2], in assay [3] and in assay [5] (protocol of Example D-2) was under 100 nM each time.

Regarding `COc1nc2c(Oc3ccc(NC(=O)c4cn(C(C)C)c(C)c(-c5ccc(F)cc5)c4=O)cc3F)ccnc2cc1-c1cnn(C(F)F)c1` [Compound 609, N-[4-[[7-[1-(Difluoromethyl)pyrazol-4-yl]-6-methoxy-1,5-naphthyridin-4-yl]oxy]-3-fluorophenyl]-5-(4-fluorophenyl)-6-methyl-4-oxo-1-propan-2-ylpyridine-3-carboxamide], the IC50 in assay [1], in assay [2], in assay [3], in assay [4] (protocol of Example C-2) and in assay [5] (protocol of Example D-2) was under 100 nM throughout.
